Experimental data: patent EP0429987B1, “5,11-Dihydro-6H-dipyrido[3,2-b:2',3'-e] [1,4]diazepines and their use in the prevention or treatment of HIV infection” (priority 1989, dated 1991)

Biological target: T1, HIV-1 RT (Human immunodeficiency virus type 1 group M subtype B, UniProt P03367)
T1 construct: Reverse transcriptase enzyme from the LAV strain of Human Immunodeficiency Virus (HIV-1) (1) was isolated; made in house; host or cells: E. coli JM109, clone pBRTprtl+ in vector pIBI21 (lac promoter, IPTG induction)
Test: Reverse Transcriptase (RT) Assay: inhibition of RNA-dependent DNA polymerase activity
Type: biochemical
Settings: @ 0.5µM
Text: Utilizing the Reverse Transcriptase (RT) Assay described below, compounds can be tested for their ability to inhibit the RNA-dependent DNA polymerase activity of HIV-1 RT.
Among the enzymes for which Human Immunodeficiency Virus (HIV-1) encodes is a reverse transcriptase (1), so-named because it transcribes a DNA copy from an RNA template. This activity can be quantitatively measured in a cell-free enzyme assay, which has been previously described (2), and is based upon the observation that reverse transcriptase is able to use a synthetic template [poly r(C) primed with oligo d(G)] to transcribe a radio-labelled, acid-precipitable DNA strand utilizing ^3H-dGTP as a substrate.
Reverse transcriptase enzyme from the LAV strain of Human Immunodeficiency Virus (HIV-1) (1) was isolated from the bacterial strain JM109 (3) expressing the DNA clone pBRTprtl+ (2) which is under the control of the lac promotor in the expression vector pIBI21 (4). An overnight culture grown in 2XYT medium (37°C, 225 rpm) (5) supplemented with 100 µg/ml ampicillin for positive selection is inoculated at a 1:40 dilution into M9 medium supplemented with 10µg/ml thiamine, 0.5% casamino acids, and 50 µg/ml ampicillin (5). The culture is incubated (37°C, 225 rpm) until it reaches an OD540 of 0.3-0.4. At that time the repressor inhibitor IPTG (isopropyl β-D-thiogalactopyranoside) is added to 0.5mM, and the mixture is incubated for 2 additional hours. Bacteria are pelleted, resuspended in a 50mM Tris, 0.6mM EDTA, 0.375M NaCl buffer and digested by the addition of lysozyme (1mg/ml) for 30 minutes on ice. The cells are lysed by the addition of 0.2% NP-40 and brought to 1M NaCl.
After removal of the insoluble debris by centrifugation, the protein is precipitated by the addition of 3 volumes of saturated aqueous ammonium sulfate. The enzyme is pelleted, resuspended in RT buffer (50mM Tris pH 7.5, 1mM EDTA, 5mM DTT, 0.1% NP-40, 0.1M NaCl, and 50% glycerol), and stored at -70°C for further use.
The 2X concentrated stock reaction mixture is aliquoted and stored at -20°C. […] This enzyme assay has been adapted to a 96 well microtiter plate system, and has been previously described (6). Tris buffer (50 mM, pH 7.4), vehicle (solvent diluted to match the compound dilution), or compounds in vehicle are dispensed into 96-well microtiter plates (10µl/well; 3 wells/ compound). The HIV-1 RT enzyme is thawed, diluted in 50mM Tris pH 7.4 so that fifteen µl of diluted enzyme contain 0.001 Unit (one unit is that amount of enzyme to transform 1 micromole of substrate per minute at 25°C), and fifteen µl are dispensed per well. Twenty µl of 0.12-0.5M EDTA are added to the first three wells of the microtiter plate. EDTA chelates the Mg^++ present and prevents reverse transcription. This group serves as background polymerization which is subtracted from all other groups. Twenty-five µl of the 2X reaction mixture are added to all wells and the assay is allowed to incubate at room temperature for 60 minutes. The assay is terminated by precipitating the DNA in each well with 50µl of 10% trichloracetic acid (TCA) (10% w/v) in sodium pyrophosphate (1% w/v). The microtiter plate is incubated for 15 minutes at 4°C and the precipitate is fixed onto #30 glass fiber paper (Schleicher & Schuell) using a Skatron semi-automatic harvester. The filters are then washed with additional TCA (5%) containing sodium pyrophosphate (1%), rinsed with aqueous ethanol (70%), dried, and transferred to scintillation vials (6). Each vial receives 2 mls of scintillation cocktail and is counted in a Beckman beta counter.
The calculation for percent inhibition is as follows: %inhibition =(CPM Mean Test Value - CPM Mean Control Value X100)/(CPM Mean Control Value) [formula]

Row | Compound | inhibition at 0.5 µM
1 | CC(=O)N1C(=O)c2cccnc2N(C2CC2)c2nccc(C)c21 [Example 54] | 30%

Same assay, conditions: @ 1µM (footnote *); read-out: RT Assay % inhibition

Row | Compound | inhibition at 1 µM
2 | Cc1cc(Cl)nc2c1NC(=O)c1cccnc1N2C1CC1 [Example 13] | 90%
3 | CCN1c2ncc(N=[N+]=[N-])cc2C(=O)N(C)c2cccnc21 [Example 16] | 63%
4 | Cc1ccnc2c1N(C)C(=O)c1cccnc1N2C1CC1 [Example 19] | 50%
5 | CCNc1ccc2c(n1)N(CC)c1ncccc1C(=O)N2C [Example 61] | 75%
6 | CCN1c2ncccc2C(=O)N(C)c2ccc(N3CCOCC3)nc21 [Example 56] | 68%
7 | CCN1c2ncccc2C(=O)N(C)c2c(C)cc(N3CCCC3)nc21 [Example 25] | 94%
8 | CCN1c2ncccc2C(=O)Nc2c(C)cc(Cl)nc21 [Example 12] | 91%
9 | C=COC(=O)N1C(=O)c2cccnc2N(C2CC2)c2nccc(C)c21 [Example 52] | 72%
10 | CCN1c2ncccc2C(=O)N(C)c2cc(Cl)c(N)nc21 [Example 49] | 52%
11 | Cc1ccnc2c1NC(=O)c1c(O)ccnc1N2C1CC1 [Example 41] | 32%
12 | CCN1c2ncccc2C(=O)N(C)c2ccc(NCc3ccc(OC)cc3)nc21 [Example 55] | 61%
13 | CCN1c2ncccc2C(=O)N(C)c2ccc(N(C)C)nc21 [Example 60] | 90%
14 | C=CCNc1ccc2c(n1)N(CC)c1ncccc1C(=O)N2C [Example 37] | 70%
15 | CN(C)CCN1C(=O)c2cccnc2N(C2CC2)c2ncccc21 [Example 59] | 8%
16 | CCN1c2ncccc2C(=O)N(C)c2ccc(N(C)Cc3ccc(OC)cc3)nc21 [Example 36] | 64%
17 | CCN1c2ncc([N+](=O)[O-])cc2C(=O)N(C)c2cccnc21 [Example 62] | 0%
18 | CN1C(=O)c2cccnc2N(C2CCCC2)c2ncccc21 [Example 28] | 34%
19 | C=CCN1C(=O)c2cccnc2N(C2CC2)c2nccc(C)c21 [Example 50] | 44%

Row | Compound | inhibition at 1 µM
20 | CCc1ccnc2c1NC(=O)c1cccnc1N2C1CC1 [Example 11] | 76%
21 | CCN1c2ncccc2C(=O)N(C)c2cc(Cl)c([N+](=O)[O-])nc21 [Example 8] | 40%
22 | O=C1Nc2c(Cl)ccnc2N(C2CC2)c2ncccc21 [Example 33] | 83%
23 | CCN1c2ncccc2C(=O)N(C)c2ccc(N3CC=CC3)nc21 [Example 26] | 86%
24 | O=C1Nc2c(CO)ccnc2N(C2CC2)c2ncccc21 [Example 38] | 34%
25 | O=C1Nc2cccnc2N(C2CCCCC2)c2ncccc21 [Example 45] | 35%
26 | CCN1c2ncc(N)cc2C(=O)N(C)c2cc(N)cnc21 [Example 51] | 20%
27 | Cc1ccnc2c1N(O)C(=O)c1cccnc1N2C1CC1 [Example 4, 11-Cyclopropyl-5,11-dihydro-5-hydroxy-4-methyl-6H-dipyrido[3,2-b:2',3'-e][1,4]diazepin-6-one] | 36%
28 | CON1C(=O)c2cccnc2N(C2CC2)c2nccc(C)c21 [Example 53] | 17%
29 | CCN1c2ncc(N)cc2C(=O)N(C)c2cccnc21 [Example 65, 8-Amino-5,11-dihydro-11-ethyl-5-methyl-6H-dipyrido[3,2-b:2',3'-e] [1,4]diazepin-6-one hemihydrate] | 82%
30 | CCN1c2ncccc2C(=O)Nc2c1nc(N1CCCC1)c(Cl)c2C [Example 64] | 94%
31 | CCc1ccnc2c1NC(=O)c1cccnc1N2C1CCC1 [Example 9] | 75%
32 | O=C1Nc2cccnc2N(C2CCCC2)c2ncccc21 [Example 24] | 35%
33 | CN1C(=O)c2cccnc2N(C2CCCCC2)c2ncccc21 [Example 44] | 90%
34 | CCN1c2nc(N(C)C)ccc2NC(=O)c2cccnc21 [Example 63] | 98%
35 | CCN1c2ncccc2NC(=O)c2c(C)cc(C)nc21 [Example 27] | 2%
36 | CCN1c2ncccc2C(=O)N(C)c2ccc(N3CCCCC3)nc21 [Example 57] | 66%

Same assay, conditions: @ 1.25µM (footnote +)

Row | Compound | inhibition at 1.25 µM
37 | N#Cc1ccnc2c1NC(=O)c1cccnc1N2C1CC1 [Example 58] | 37%

Same assay, conditions: read-out: RT Assay % inhibition

Row | Compound | inhibition at 1 µM
38 | CCN1c2ncc([N+](=O)[O-])cc2C(=O)N(C)c2cc(Cl)c([N+](=O)[O-])nc21 [Example 40] | 0%
39 | Cc1cc(C)c2c(n1)N(C1CC1)c1ncccc1C(=O)N2 [Example 10] | 85%
40 | CCN1c2ncccc2C(=NOC)Nc2c(C)cc(C)nc21 [Example 67, 5,11-Dihydro-11-ethyl-6-methoxyimino-2,4-dimethyl-6H-dipyrido[3,2-b:2',3'-e][1,4]diazepine] | 88%
41 | Cc1ccnc2c1NC(=S)c1cccnc1N2C1CC1 [Example 42, 5,11 Dihydro-6H-11-cyclopropyl-4-methyl-dipyrido[3,2-b:2',3'-e][1,4]diazepin-6-thione] | 90%
42 | CCN1c2ncc([N+](=O)[O-])cc2C(=O)N(C)c2cc([N+](=O)[O-])cnc21 [Example 39] | 0%

Same assay, conditions: read-out: RT Assay % inhibition @ 10 µg/ml

Row | Compound | inhibition at 10 µg/mL
43 | CCN1c2ncccc2NC(=O)c2c1nc(C)c(Cl)c2C [Example 46] | 44%
44 | CN1C(=O)c2cccnc2N(C2CCC2)c2ncccc21 [Example 32] | 100%
45 | CN1C(=O)c2cccnc2N(C(C)(C)C)c2ncccc21 [Example 15] | 87%
46 | CN1C(=O)c2cccnc2N(C#N)c2ncccc21 [Example 43] | 44%
47 | COc1ccnc2c1NC(=O)c1cccnc1N2C1CC1 [Example 35] | 91%
48 | CN1C(=O)c2cccnc2N(S(C)(=O)=O)c2ncccc21 [Example 48] | 77%
49 | CCN1c2ncccc2C(=O)N(C)c2cc(C)c(C)nc21 [Example 22] | 100%
50 | CCN1c2ncccc2C(=O)Nc2c(C(F)(F)F)cc(Cl)nc21 [Example 30] | 100%
51 | O=C1Nc2cccnc2N(C2CC2)c2ncccc21 [Example 18] | 99%
52 | COCN1C(=O)c2cccnc2N(COC)c2nccc(C)c21 [Example 29] | 0%
53 | CC(C)N1c2ncccc2NC(=O)c2cccnc21 [Example 17] | 99%
54 | O=C1Nc2cccnc2N(C2CCC2)c2ncccc21 [Example 31] | 99%
55 | CCN1c2ncccc2C(=NC#N)Nc2c(C)cc(C)nc21 [Example 66, 6-Cyanoimino-5,11-dihydro-11-ethyl-2,4-dimethyl-6H-dipyrido[3,2-b:2',3'-e][1,4]diazepine] | 100%
56 | CC[C@@H](C)N1c2ncccc2NC(=O)c2cccnc21 [Example 21] | 85%
57 | CC[C@H](C)N1c2ncccc2NC(=O)c2cccnc21 [Example 23] | 88%
58 | CN1C(=O)c2cccnc2N(CC2CC2)c2ncccc21 [Example 20] | 93%
59 | CCN1c2ncccc2C(=O)Nc2c(C(F)(F)F)cc(C)nc21 [Example 1, 5,11-Dihydro-11-ethyl-2-methyl-4-trifluoromethyl-6H-dipyrido-[3,2-b:2',3'-e][1,4]diazepin-6-one] | 100%
